Source: patent publication US10111881B2 (priority 2016, dated 2018)
pIC50: −log10 of the molar value.

Columns and labels:
MARV = test: microbe, parasite or virus in culture; type: cell-based, Marburgvirus (Musoke strain); conditions: for pIC50: read-out: IC-50 (MARV)
EBOV = test: organism not typed; type: cell-based, Zaire Ebolavirus (Mayinga strain); conditions: for pIC50: read-out: IC-50 (EBOV)

Compound	Curve class (MARV) (MARV)	pIC50 (MARV)	Curve Class (EBOV) (EBOV)	pIC50 (EBOV)
C=C1CC(C)OC(c2ccccc2OCC(O)CN2CCCCC2)C1 (centres unmarked) [MLS000042810]	1.2	4.59	1.7	–
O=C(NC1CCCCC1)c1ccc(S(=O)(=O)N2CCCCC2)cc1 [MLS000063146]	1.2	4.60	4	–
CCN1CCN(CCCNC(=O)c2cc3cc4ccc(OC)cc4nc3o2)CC1 [MLS000091920]	1.2	5.27	4	–
O=C1C2CCCN2C(c2cccs2)N1c1ccc(Cl)cc1 (centres unmarked) [MLS000092187]	1.2	4.60	1.4	–
Cc1cc(OCCCCCNCCO)cc(C)c1Cl [MLS000106706]	1.2	4.60	1.5	6.23
CC1(C)CC(NC(=O)N2c3ccccc3Sc3ccccc32)CC(C)(C)N1 [MLS000332573]	1.2	4.89	1.3	5.22
Cc1ccc(NC(=O)CN(C)C(=O)Cn2ncc(Cl)c(Cl)c2=O)cc1 [MLS000336293]	–	4.62	4	–
O=C(COC(=O)/C=C/c1cccs1)Nc1nc(-c2ccccc2)cs1 [MLS000391391]	1.2	4.60	1.4	–
CC(C)(C)c1cc(/C=N/O)cc(C(C)(C)C)c1O [MLS000391984]	1.2	5.21	1.4	–
S=C(Nc1ccc(Cl)cc1)NC1CCN(Cc2ccccc2)CC1 [MLS000418057]	1.2	4.59	4	–
CCN(CC)CCNC1=NCCn2c1cc1cc(OC)ccc12 [MLS000556387]	1.2	4.59	1.6	5.53
Cc1cc(C(=O)c2ccccc2)c(NC(=O)CCl)s1 [MLS000567464]	1.2	~4.35	1.6	4.60
Cc1ccc(NC(=O)ON=C2CCCC2)cc1 [MLS000569139]	1.2	4.90	1.4	–
CCOc1cccc(CNCCO)c1OCc1ccc(Cl)cc1Cl.Cl [MLS000580080]	1.2	4.60	1.3	4.61
COc1ccc(C(C(=O)NC2CCCCC2)N(C(=O)CCl)c2ccc(C)cc2)cc1 (centres unmarked) [MLS000583959]	1.2	4.92	1.3	4.91
C=CCNCCOCCOc1ccc(Cl)cc1C(C)(C)C [MLS000666802]	–	4.60	1.5	6.21
CCCN1CCN(CCCNC(=O)c2cc3c(=O)[nH]c4ccc(C)cc4c3s2)CC1 [MLS000673118]	1.2	4.60	1.3	4.60
CCOC(=O)c1c(C)n(CC(O)CN(C)C)c2cc(Br)c(OC)cc12.Cl (centres unmarked) [MLS000684231]	1.2	5.31	1.3	5.19
CCCCN(CCCC)CCNC(=O)CSCc1ccc(C)cc1.O=C(O)C(=O)O [MLS000689481]	1.2	4.89	1.3	4.92
CCOc1cc(CNCCc2c[nH]c3ccccc23)cc(Cl)c1OC.Cl [MLS000718690]	1.2	4.60	–	5.56
Oc1ccc(N2CCN(Cc3ccc(OCCCN4CCCCC4)cc3)CC2)cc1 [MLS000736237]	1.2	4.85	4	–
Oc1ccc(Nc2ccnc3cc(Cl)ccc23)cc1 [MLS000737975]	–	4.60	4	–
Cc1cc(C)c2nc(C)cc(Nc3ccc(C(=O)NCCO)cc3)c2c1 [MLS000768081]	1.2	4.86	4	–

Compound	Curve class (MARV) (MARV)	pIC50 (MARV)	Curve Class (EBOV) (EBOV)	pIC50 (EBOV)
CCN(CC)CCCNc1nc(CN2CCOCC2)nc2sc3c(c12)CCC3 [MLS000772389]	1.2	4.61	1.6	5.45
O=C1COc2ccc(C(=O)CCl)cc2N1 [MLS000780111]	–	~4.41	4	–
Fc1ccc(C(c2nnnn2Cc2cccs2)N2CCN(C3CCCCC3)CC2)cc1 (centres unmarked) [MLS000880330]	1.2	4.59	1.6	5.19
COc1ccc(NC(=O)C2C3C=CC4(O3)C2C(=O)N(CCN2CCCCC2)C4C(=O)NC2CCCC(C)C2C)cc1 (centres unmarked) [MLS000936259]	1.2	4.60	1.3	4.90
Cc1c(C(=O)NCCN(C)C)oc2ccc(S(=O)(=O)N3CCCC3)cc12 [MLS000936795]	1.2	4.60	1.4	–
Cc1cc(NC(=O)CCN2CCN(C/C=C/c3ccccc3)CC2)ccc1Br.Cl [MLS000999960]	–	4.58	1.6	5.48
CCN1CCCC1CNCC(O)COc1ccc(C(C)(C)C)cc1C.O=C(O)C(=O)O (centres unmarked) [MLS001018888]	1.2	4.59	1.3	4.91
Cc1cc(Nc2ccc(Cl)cc2)nc(N2CCOCC2)n1 [MLS001029946]	1.2	~4.36	1.6	5.82
COc1ccc2c(c1)c(CCN)c(C)n2Cc1ccccc1.Cl [MLS001030162]	–	4.60	1.3	5.19
COc1ccccc1C(=O)O/N=C(\N)c1ccccn1 [MLS001045935]	1.2	4.55	1.4	–
CN(C)c1cc(NC(=O)CN2CCCC2)c2ccccc2n1.O=C(O)C(=O)O [MLS001047402]	1.2	4.59	1.2	5.28
COc1ccc(C(CNC(=O)c2oc3ccc(OC)cc3c2C)N2CCCC2)cc1 (centres unmarked) [MLS001150589]	1.2	4.59	4	–
COc1ccccc1CCN1CCCC(CN(C)CC(C)(C)CO)C1 (centres unmarked) [MLS001162808]	1.2	4.58	1.3	5.14
O=C(CCCN1CCc2[nH]c3ccc(F)cc3c2C1)c1ccc(F)cc1 [MLS001173370]	–	4.60	1.3	5.51
O=C(C#Cc1ccccc1)c1ccco1 [MLS001174896]	–	4.91	–	4.91
CCN(CC)CCNC(=O)c1ccc(NC(=O)c2ccccc2-c2ccc(C(F)(F)F)cc2)cc1 [MLS001175455]	1.2	4.59	1.6	5.19
Cc1cccc(C)c1OCC(O)CNC(C)c1ccccc1.Cl (centres unmarked) [MLS001177927]	1.2	4.59	1.5	5.19
Fc1ccc2c(c1)Sc1ccc(Cl)cc1CC2N1CCN(CCC2OCCO2)CC1 (centres unmarked) [MLS001179272]	1.3	4.59	1.5	6.16
COc1ccc2c(c1)CC(N1CCN(C)CC1)c1cc(OC)ccc1S2.O=C(O)/C=C\C(=O)O (centres unmarked) [MLS001179278]	1.2	4.90	1.6	5.19
CCN(CCNCC(O)COc1ccccc1C(C)C)c1cccc(C)c1.O=C(O)C(=O)O (centres unmarked) [MLS001179997]	–	4.59	1.4	–
Cc1ccc(C(=O)N/C(=C/c2ccc(-c3ccc([N+](=O)[O-])cc3)o2)C(=O)NCCCN(C)C)cc1 [MLS001180408]	–	4.90	4	–
OC(CN1CCCCC1)Cn1c2ccc(Cl)cc2c2cc(Cl)ccc21 (centres unmarked) [MLS001181479]	1.2	4.59	4	–
